In patent US20060223812A1, “Treating neurodegenerative conditions” (MAX-PLANCK-GESELLSCHAFT ZUR FORDERUNGDER WISSENSCHAFTEN, …, priority 2004, published 2006):

Target: T1, Aβ1-40 fibrils (Homo sapiens, UniProt P05067)
T1 construct: Commercial human Aβ1-40 was obtained from Calbiochem; purchased Calbiochem
Assay: Disassembly of pre-formed Aβ fibrils (thioflavine T)
Assay type: biochemical
Settings: 60 μM compound, 10 μM Aβ1-40
Method: Besides the activity of the compounds towards tau fibres, their specificity is an important issue, i.e. the ability to discriminate between different types of aggregates. Therefore, an analysis of the influence of the compounds (60 μM) on amyloid fibrils made from the Aβ1-40 peptide, both in terms of inhibition of de novo filament formation and depolymerisation was performed (FIGS. 8A-B). These fibres are also abundant in Alzheimer brain and contain a core of cross-β-structure, but are located outside the cells, in contrast to the intracellular PHFs.
Commercial human Aβ1-40 was obtained from Calbiochem (Schwalbach, Germany) and stored at −20° C. The AD peptide was routinely dissolved in 100% DMSO to obtain a 2 mM stock solution, which was subsequently stored frozen at −20° C. […] For analysis 5 μl of this solution were added to 45 μl 10 mM phosphate buffer containing 6 μM thioflavine T, pH 6.0, after 30 minutes incubation at room temperature the fluorescence was measured at 504 nm emission by an excitation of 409 nm. To correlate fibril morphology with the fluorescence signal, aliquots of the Aβ1-40 solutions were simultaneously prepared for electron microscopy. […]

T1 sequence (P05067 672-711): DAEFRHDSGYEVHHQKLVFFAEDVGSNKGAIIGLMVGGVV

Compound: O=C(c1ccccc1)c1ccc(O)c(O)c1O [PHF005, 1-Phenyl-1-(2,3,4-trihydroxy-phenyl)-methanone]
- depolymerisation activity, Aβ fibrils: ~50%
